As usually defined, the Solubility is how much of the substance goes into solution per volume. Read a high Solubility as a readily soluble substance.

The data set is described as follows: Solubility of compound of Formula 1 in various solvents (excess compound, shaking, HPLC). The data set is classed as physicochemical. As to conditions: Ethanol; 25° C., 24 hours. As to the method:
Since solvent that gives high solubility can dissolve the compound of Formula 1 in a small amount compared to a solvent that gives low solubility, in particular, when formulated into an external preparation of skin, a relatively higher amount of water may be contained, so that the feeling of use can be further enhanced.
An excessive amount of the compound of Formula 1 was added to 1 mL of each solvent shown in Table 1 below, and stirred at 25° C. at 200 rpm for 24 hours while shaking
(Shaking incubator, SI 600R, JEIO TECH, Korea). Thereafter, centrifugation was performed at 10,000 rpm for 10 minutes, and the supernatant was filtered using a membrane filter (0.2 μm), diluted appropriately with methanol, and analyzed by HPLC.

On to `CCCc1nc(C(F)(F)F)ccc1/C=C/C(=O)N[C@H](C)c1cc(F)c(NS(C)(=O)=O)c(F)c1` [compound of Formula 1, (R)-N-[1-(3,5-difluoro-4-methanesulfonylamino-phenyl)-ethyl]-3-(2-propyl-6-trifluoromethyl-pyridin-3-yl)-acrylamide], for which the “Solubility” value is given as 75.32 mg/mL.

These data come from US12059412B2, “Pharmaceutical composition containing (R)-N-[1-(3,5-difluoro-4-methanesulfonylamino-phenyl)-ethyl]-3-(2-propyl-6-trifluoromethylpyridin-3-yl)-acrylamide and method for inhibiting crystal formation thereof” (Amorepacific Corporation, priority 2018, dated 2024).
